The results in this text go back to ChEMBL document CHEMBL1201862, “PubChem BioAssay data set” (2004).

Some test systems named below: M14; OVCAR-5; RPMI-8226; HL-60; U-251; SNB-75; COLO 205; Malme-3M; NCI-H23; HCC 2998; 786-0; OVCAR-4; LOX IMVI; SR; NCI-H226; A498.
Holding throughout (experiment): DTP human tumour cell line panel, 48 h

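All cell lines were grown in 96-well plates and treated with compound for 48 hours. Here, GI50 denotes the concentration required for 50% inhibition of growth.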 The source made the active and inactive calls. Cut-off read from the data, not from the text of the source: active = GI50 up to about 1.1 µM and inactive = higher.

A word on the GI50: it is the concentration giving 50% growth inhibition. Regarding `O=C1c2ccccc2-c2cccc3ccc(Cc4ccccc4)c1c23`, the GI50 is > 100 µM (inactive) in the experiment with M14; > 100 µM (inactive) in the experiment on OVCAR-5; > 100 µM (inactive) in the experiment with RPMI-8226; > 100 µM (inactive) in the experiment with HL-60; > 100 µM (inactive) in the experiment with U-251; 6.53 µM (inactive) with SNB-75. The GI50 in the experiment on COLO 205 was > 100 µM (inactive); in the experiment with Malme-3M, > 100 µM (inactive); in the experiment with NCI-H23 it was > 100 µM (inactive); with HCC 2998, > 100 µM (inactive); with 786-0, > 100 µM (inactive); in the experiment on OVCAR-4, 84.3 µM (inactive).

As for `CCCN1C(=O)C/C(=C\C(C)=O)Nc2ccccc21`, the GI50 in the experiment on M14 is > 100 µM (inactive); with OVCAR-5, > 100 µM (inactive); in the experiment with U-251 it was > 100 µM (inactive); with SNB-75, > 100 µM (inactive); with COLO 205, 86.3 µM (inactive); in the experiment with Malme-3M it was > 100 µM (inactive). For the same compound, the GI50 in the experiment on NCI-H23, in the experiment with HCC 2998, in the experiment with LOX IMVI, in the experiment with 786-0, in the experiment on SR and with OVCAR-4 was > 100 µM (inactive) in each case. Further, the GI50 with NCI-H226 was 37.2 µM (inactive).

As to `O=S(=O)(c1ccccc1)n1cnc(CCc2ccccc2)n1`, the GI50 in the experiment on M14, with OVCAR-5, with RPMI-8226, with HL-60, with A498 and with U-251 was > 100 µM (inactive) throughout. The GI50 in the experiment with SNB-75 was 45.1 µM (inactive); in the experiment with COLO 205 it was > 100 µM (inactive); in the experiment on Malme-3M, > 100 µM (inactive); in the experiment on NCI-H23, > 100 µM (inactive); in the experiment with LOX IMVI it was > 100 µM (inactive); with 786-0, > 100 µM (inactive). Moreover, the GI50 in the experiment on SR, in the experiment with OVCAR-4 and in the experiment with NCI-H226 was > 100 µM (inactive) each time.

Turning to `N#C/N=C1\NCCC(=O)N1CCc1c[nH]c2ccccc12`, the GI50 in the experiment with M14, in the experiment with RPMI-8226, in the experiment on HL-60, in the experiment on SNB-75, with COLO 205 and with NCI-H23 was > 100 µM (inactive) in each case. For the same compound, the GI50 in the experiment with HCC 2998, with LOX IMVI, in the experiment with 786-0, with SR, in the experiment on OVCAR-4 and with NCI-H226 was > 100 µM (inactive) throughout.

`CCc1cccc(C)c1NC(=O)CC1C(=O)Nc2ccccc2[S+]1[O-]` (stereo unspecified): the GI50 is 31.2 µM (inactive) with M14; > 100 µM (inactive) in the experiment with OVCAR-5; 33 µM (inactive) in the experiment on RPMI-8226; 28.4 µM (inactive) in the experiment on HL-60; 18.7 µM (inactive) with U-251; 33.5 µM (inactive) in the experiment on SNB-75. Moreover, the GI50 with COLO 205 is 39.2 µM (inactive); in the experiment with Malme-3M, 28.5 µM (inactive); with NCI-H23, 31.3 µM (inactive); in the experiment with HCC 2998, 56.4 µM (inactive); in the experiment on LOX IMVI, 44.5 µM (inactive); with 786-0, 47.5 µM (inactive). Also, the GI50 is 34 µM (inactive) in the experiment with SR, 28.3 µM (inactive) with OVCAR-4 and > 100 µM (inactive) with NCI-H226.

With `CN(C)CCC(/C=C/c1ccccc1)=N\Nc1ccc(Cl)cc1`, the GI50 with M14 is 3.18 µM (inactive); in the experiment on OVCAR-5, 1.08 µM (active); in the experiment with RPMI-8226, 1.9 µM (inactive); in the experiment on HL-60, 2.18 µM (inactive); in the experiment with A498, 7.66 µM (inactive); with U-251, 1.84 µM (inactive). For the same compound, the GI50 was 4.31 µM (inactive) in the experiment with SNB-75; 4.31 µM (inactive) with COLO 205; 12.7 µM (inactive) in the experiment with Malme-3M; 7.24 µM (inactive) in the experiment with NCI-H23; 1.69 µM (inactive) in the experiment on HCC 2998; 1.59 µM (inactive) in the experiment on LOX IMVI. Moreover, the GI50 in the experiment with 786-0 is 2.39 µM (inactive); with OVCAR-4 it was 5.21 µM (inactive).

On to `N=C(N)NS(=O)(=O)c1ccc(Nc2c3ccccc3nc3c(C(=O)Nc4ccc(S(N)(=O)=O)cc4)cccc23)cc1`, for which the GI50 in the experiment with M14 is > 100 µM (inactive); in the experiment on OVCAR-5 it was > 100 µM (inactive); in the experiment on RPMI-8226 it was > 100 µM (inactive); in the experiment with HL-60 it was 88.1 µM (inactive); with A498 it was > 100 µM (inactive); in the experiment on U-251, 94.2 µM (inactive). The GI50 with SNB-75 was 42.1 µM (inactive); in the experiment on COLO 205, > 100 µM (inactive); in the experiment on Malme-3M, > 100 µM (inactive); with NCI-H23, > 100 µM (inactive); in the experiment on HCC 2998, 55.5 µM (inactive); in the experiment with LOX IMVI, 28.2 µM (inactive). Besides, the GI50 with 786-0 and with OVCAR-4 was > 100 µM (inactive) in each case.

Regarding `COc1ccc2c(c1)OCCCN(C)OC2c1ccccc1` (stereo unspecified), the GI50 in the experiment on OVCAR-5, in the experiment on RPMI-8226, in the experiment on U-251, with SNB-75, in the experiment with COLO 205 and in the experiment on Malme-3M was > 100 µM (inactive) each time. Moreover, the GI50 with NCI-H23, in the experiment with HCC 2998, in the experiment on 786-0, in the experiment on SR and with NCI-H226 was > 100 µM (inactive) throughout.

For the compound `O=C(c1ccccc1)c1c(-c2ccccc2)sc2nc3ccccc3nc12`, the GI50 in the experiment on M14, with OVCAR-5, in the experiment with RPMI-8226, with HL-60, with A498 and with U-251 was > 100 µM (inactive) in each case. Moreover, the GI50 was 32.8 µM (inactive) with SNB-75; > 100 µM (inactive) in the experiment on COLO 205; 92.3 µM (inactive) with Malme-3M; > 100 µM (inactive) in the experiment on NCI-H23; > 100 µM (inactive) in the experiment with HCC 2998; 38.1 µM (inactive) in the experiment on 786-0. For the same compound, the GI50 in the experiment on OVCAR-4 was 37.8 µM (inactive); in the experiment with NCI-H226, 20.3 µM (inactive).

In the case of `Cc1cc([N+](=O)[O-])ccc1Nc1cccc(Cl)c1C`, the GI50 in the experiment with M14 is 15.5 µM (inactive); in the experiment on OVCAR-5 it was 14.7 µM (inactive); with HL-60, 18.2 µM (inactive); in the experiment with A498, 15.3 µM (inactive); in the experiment with U-251, 16.3 µM (inactive); in the experiment on SNB-75 it was 19.2 µM (inactive). The GI50 with COLO 205 is 17 µM (inactive); in the experiment on Malme-3M, 15.2 µM (inactive); with NCI-H23, 17.1 µM (inactive); with HCC 2998, 18.3 µM (inactive); in the experiment on LOX IMVI, 17.3 µM (inactive); with 786-0, 14 µM (inactive). In addition, the GI50 is 14.7 µM (inactive) with SR, 16.5 µM (inactive) in the experiment with OVCAR-4 and 18.9 µM (inactive) with NCI-H226.

Consider `O=C(c1ccccc1)c1oc2ccc(Br)cc2c1-c1cnn(-c2ccccc2)c1`, for which the GI50 is > 100 µM (inactive) with M14; > 100 µM (inactive) in the experiment with OVCAR-5; 54.7 µM (inactive) with RPMI-8226; > 100 µM (inactive) in the experiment with HL-60; > 100 µM (inactive) in the experiment on SNB-75; > 100 µM (inactive) in the experiment with COLO 205. For the same compound, the GI50 in the experiment on Malme-3M, with NCI-H23, in the experiment with HCC 2998, in the experiment on LOX IMVI, with 786-0 and with OVCAR-4 was > 100 µM (inactive) each time.

For `ClCCCCOC1CCCCO1` (stereo unspecified), the GI50 with M14, in the experiment on OVCAR-5, in the experiment with HL-60, with A498, in the experiment on U-251 and in the experiment with SNB-75 was > 100 µM (inactive) in each case. Besides, the GI50 in the experiment with COLO 205, with Malme-3M, with NCI-H23, with HCC 2998, in the experiment with 786-0 and with OVCAR-4 was > 100 µM (inactive) in each case. Also, the GI50 in the experiment with NCI-H226 was > 100 µM (inactive).

Take `COC(=O)C(=O)C(C#N)c1c(Cl)cccc1Cl` (stereo unspecified): the GI50 in the experiment with M14, in the experiment with OVCAR-5, in the experiment on RPMI-8226, with HL-60, with A498 and with SNB-75 was > 100 µM (inactive) throughout. Moreover, the GI50 with COLO 205, with Malme-3M, in the experiment with NCI-H23, in the experiment with LOX IMVI, in the experiment with 786-0 and in the experiment with OVCAR-4 was > 100 µM (inactive) throughout. The GI50 in the experiment with NCI-H226 was > 100 µM (inactive).

Consider `O=C1C2Cc3ccccc3CN2C(=O)N1CCN1CCOCC1` (stereo unspecified), for which the GI50 in the experiment on M14, in the experiment with OVCAR-5, in the experiment on RPMI-8226, in the experiment with HL-60, in the experiment on A498 and in the experiment on U-251 was > 100 µM (inactive) in each case. Besides, the GI50 in the experiment with COLO 205, in the experiment on Malme-3M, in the experiment with NCI-H23, in the experiment with HCC 2998, with LOX IMVI and with 786-0 was > 100 µM (inactive) each time. In addition, the GI50 in the experiment with SR, in the experiment with OVCAR-4 and in the experiment on NCI-H226 was > 100 µM (inactive) throughout.

As to `CN(C)CCCCC1CCN(CC(=O)N2c3ccccc3NC(=O)c3ccccc32)CC1`, the GI50 with M14 is 28.1 µM (inactive); with RPMI-8226, > 100 µM (inactive); in the experiment on HL-60, > 100 µM (inactive); with A498, > 100 µM (inactive); with SNB-75, > 100 µM (inactive); with COLO 205 it was > 100 µM (inactive). The GI50 with Malme-3M, in the experiment on NCI-H23, in the experiment with HCC 2998, in the experiment with 786-0, with SR and with OVCAR-4 was > 100 µM (inactive) each time. Further, the GI50 in the experiment on NCI-H226 was > 100 µM (inactive).
